Data taken from patent publication US20250170248A1, “SMARCA DEGRADERS AND USES THEREOF” (Kymera Therapeutics, Inc., priority 2021, published 2025).

How the values were obtained:
Format in all cases: cell-based
SMARCA2 [1] = biological target: T1, SMARCA2 (Homo sapiens, UniProt P51531); test: MSD SMARCA2 degradation in A549 cell line; settings: 24 h; for Dmax: A549, A549 cells; for DC50: A549 cells, read-out: SMARCA2 MSD A549 degradation 24 h: Average external-Abs DC50
Procedure, shortened: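 SMARCA2 protein remaining after 24 h exposure of A549 cells (top concentration 1000 nM, 3-fold dilutions) was measured by MSD electrochemiluminescence immunoassay of cell lysates. Results are given as binned DC50 and maximal degradation (Dmax) codes.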

SMARCA4 = biological target: T2, SMARCA4 (Homo sapiens, UniProt P51532); test: SMARCA4 Western blot degradation in MV4-11 cells; settings: 24 h; for Dmax: MV4-11, MV4-11 cells, read-out: SMARCA4 MSD MV411 degradation 24 h: average Dmax %; for DC50: MV4-11 cells, read-out: SMARCA4 MSD MV411 degradation 24 h: Mean external-Abs DC50
T2 construct: SMARCA2/SMARCA4 protein degradation selectivity in MV4-11 cells; endogenous in cells; host or cells: MV4-11
Procedure, shortened: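 Fluorescent LI-COR imaging of Western blots quantified SMARCA2 and SMARCA4 protein remaining in MV4-11 cells after 24 h of compound treatment. β-actin was the loading control, and DC50, Dmax and SMARCA2/4 selectivity are given as letter-coded ranges.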

SMARCA2 [2] = biological target: T1, SMARCA2; test: SMARCA2 Western blot degradation in MV4-11 cells; design: SMARCA2/SMARCA4 protein degradation selectivity in MV4-11 cells; endogenous in cells; host or cells: MV4-11; settings: for Dmax: MV4-11, MV4-11 cells, read-out: SMARCA2 MSD MV411 degradation 24 h: average Dmax %; for Dmax / DC50: 24 h; for DC50 / Selectivity in MV411: MV4-11 cells; for DC50: read-out: SMARCA2 MSD MV411 degradation 24 h: Mean external-Abs DC50; for Selectivity in MV411: SMARCA2/4 selectivity

T1 sequence (P51531 whole entry): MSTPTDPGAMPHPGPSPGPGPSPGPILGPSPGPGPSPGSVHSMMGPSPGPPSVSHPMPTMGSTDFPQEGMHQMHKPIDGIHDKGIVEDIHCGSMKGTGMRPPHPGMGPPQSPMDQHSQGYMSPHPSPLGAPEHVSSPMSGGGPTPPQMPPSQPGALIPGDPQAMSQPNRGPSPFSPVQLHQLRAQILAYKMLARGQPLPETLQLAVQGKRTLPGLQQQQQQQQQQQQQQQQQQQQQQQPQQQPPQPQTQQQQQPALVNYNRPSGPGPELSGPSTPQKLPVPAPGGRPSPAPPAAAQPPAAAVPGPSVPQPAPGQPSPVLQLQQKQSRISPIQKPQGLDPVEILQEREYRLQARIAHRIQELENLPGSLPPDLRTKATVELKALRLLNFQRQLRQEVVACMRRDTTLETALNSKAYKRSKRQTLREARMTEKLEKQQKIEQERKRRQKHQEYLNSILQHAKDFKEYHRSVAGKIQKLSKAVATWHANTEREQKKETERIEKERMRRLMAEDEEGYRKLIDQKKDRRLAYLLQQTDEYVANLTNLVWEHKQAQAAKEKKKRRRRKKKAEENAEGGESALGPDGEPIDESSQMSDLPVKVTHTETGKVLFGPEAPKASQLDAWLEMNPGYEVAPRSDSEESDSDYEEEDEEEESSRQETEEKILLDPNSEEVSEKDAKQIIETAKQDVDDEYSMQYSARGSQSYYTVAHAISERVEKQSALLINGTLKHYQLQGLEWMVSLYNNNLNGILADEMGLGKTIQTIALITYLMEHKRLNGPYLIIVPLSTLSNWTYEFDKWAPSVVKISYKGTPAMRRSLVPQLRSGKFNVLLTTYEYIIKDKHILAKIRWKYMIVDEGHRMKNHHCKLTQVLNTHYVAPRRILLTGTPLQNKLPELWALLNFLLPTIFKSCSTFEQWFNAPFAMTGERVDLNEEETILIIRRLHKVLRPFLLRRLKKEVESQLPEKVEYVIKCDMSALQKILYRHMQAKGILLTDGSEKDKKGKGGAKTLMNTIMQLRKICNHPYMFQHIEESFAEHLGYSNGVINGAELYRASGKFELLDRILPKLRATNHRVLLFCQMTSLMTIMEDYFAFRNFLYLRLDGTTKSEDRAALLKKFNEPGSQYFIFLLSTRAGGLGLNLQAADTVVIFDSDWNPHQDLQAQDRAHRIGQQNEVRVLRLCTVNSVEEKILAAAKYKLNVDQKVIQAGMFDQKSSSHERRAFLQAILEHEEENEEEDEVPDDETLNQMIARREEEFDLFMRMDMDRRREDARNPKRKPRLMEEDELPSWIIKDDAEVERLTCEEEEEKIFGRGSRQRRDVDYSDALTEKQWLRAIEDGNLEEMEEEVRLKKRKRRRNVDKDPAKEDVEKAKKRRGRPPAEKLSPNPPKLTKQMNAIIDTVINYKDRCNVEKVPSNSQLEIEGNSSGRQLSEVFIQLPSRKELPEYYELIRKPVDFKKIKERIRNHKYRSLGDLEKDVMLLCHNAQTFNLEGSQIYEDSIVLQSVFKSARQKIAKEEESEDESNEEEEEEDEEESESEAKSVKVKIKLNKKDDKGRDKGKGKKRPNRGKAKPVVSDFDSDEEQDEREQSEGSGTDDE
T2 sequence (P51532 whole entry): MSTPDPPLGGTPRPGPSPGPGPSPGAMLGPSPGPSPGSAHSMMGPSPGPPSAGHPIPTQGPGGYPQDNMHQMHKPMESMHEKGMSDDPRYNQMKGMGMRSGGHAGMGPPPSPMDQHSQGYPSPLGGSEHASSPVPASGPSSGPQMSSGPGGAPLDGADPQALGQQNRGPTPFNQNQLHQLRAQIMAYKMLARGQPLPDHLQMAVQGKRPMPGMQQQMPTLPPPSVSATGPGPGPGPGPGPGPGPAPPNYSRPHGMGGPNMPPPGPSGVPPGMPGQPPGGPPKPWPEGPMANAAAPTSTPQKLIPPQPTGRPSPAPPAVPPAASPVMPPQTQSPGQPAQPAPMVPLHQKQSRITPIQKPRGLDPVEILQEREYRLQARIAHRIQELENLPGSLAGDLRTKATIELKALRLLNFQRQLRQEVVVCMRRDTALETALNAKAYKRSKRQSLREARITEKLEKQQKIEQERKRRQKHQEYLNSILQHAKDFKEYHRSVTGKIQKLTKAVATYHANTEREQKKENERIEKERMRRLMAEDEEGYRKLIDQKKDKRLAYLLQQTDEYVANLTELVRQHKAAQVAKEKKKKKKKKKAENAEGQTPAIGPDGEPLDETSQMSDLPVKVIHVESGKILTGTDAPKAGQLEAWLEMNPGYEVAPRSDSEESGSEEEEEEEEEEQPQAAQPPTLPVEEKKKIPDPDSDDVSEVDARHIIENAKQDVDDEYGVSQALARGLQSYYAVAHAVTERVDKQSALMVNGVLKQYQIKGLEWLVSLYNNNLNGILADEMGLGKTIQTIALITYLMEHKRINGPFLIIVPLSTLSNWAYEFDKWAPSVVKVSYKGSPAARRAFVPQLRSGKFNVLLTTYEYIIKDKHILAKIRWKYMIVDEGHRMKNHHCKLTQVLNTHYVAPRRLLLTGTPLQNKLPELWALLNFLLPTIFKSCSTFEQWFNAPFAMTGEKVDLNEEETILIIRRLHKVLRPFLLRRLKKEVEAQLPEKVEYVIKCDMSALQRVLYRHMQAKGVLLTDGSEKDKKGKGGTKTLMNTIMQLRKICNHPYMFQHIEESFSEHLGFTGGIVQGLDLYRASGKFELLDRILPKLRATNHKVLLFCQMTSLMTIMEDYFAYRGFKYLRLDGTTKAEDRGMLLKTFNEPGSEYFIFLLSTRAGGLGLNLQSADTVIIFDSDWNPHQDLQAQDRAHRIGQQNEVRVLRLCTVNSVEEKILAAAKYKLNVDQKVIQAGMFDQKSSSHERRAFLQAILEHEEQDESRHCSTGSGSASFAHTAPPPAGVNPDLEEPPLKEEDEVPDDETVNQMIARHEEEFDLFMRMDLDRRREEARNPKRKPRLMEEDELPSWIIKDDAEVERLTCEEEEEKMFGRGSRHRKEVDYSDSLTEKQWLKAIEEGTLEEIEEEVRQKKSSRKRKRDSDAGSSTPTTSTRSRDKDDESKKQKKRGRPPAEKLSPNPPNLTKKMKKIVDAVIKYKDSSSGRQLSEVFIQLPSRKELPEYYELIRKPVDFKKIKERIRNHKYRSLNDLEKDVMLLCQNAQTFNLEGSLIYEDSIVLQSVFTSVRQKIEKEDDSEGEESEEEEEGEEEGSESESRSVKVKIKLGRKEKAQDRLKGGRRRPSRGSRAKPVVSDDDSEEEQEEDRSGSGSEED

Compound | Dmax (SMARCA2 [1]) [%] | DC50 (SMARCA2 [1]) [nM] | Dmax (SMARCA4) [%] | DC50 (SMARCA4) [nM] | Dmax (SMARCA2 [2]) [%] | DC50 (SMARCA2 [2]) [nM] | Selectivity in MV411 (SMARCA2 [2])
C#Cc1ccc(CNC(=O)[C@@H]2C[C@@H](O)CN2C(=O)[C@@H](NC(=O)N2CC3(CC(N4CCC(c5cnc(N6CCc7[nH]c8nnc(-c9ccccc9O)cc8c7[C@H]6C)nc5)CC4)C3)C2)C(C)(C)C)c(F)c1 [I-120] | > 90 | 10 to 50 | 50 to 70 | > 100 | 70 to 90 | 10 to 100 | B (B (>100-500 fold))
C#CCOc1cc(C(C(=O)N2C[C@H](O)C[C@H]2C(=O)NCc2ccc(-c3scnc3C)cc2O[C@H]2CC[C@H](N3CCC(c4cnc(N5CCc6[nH]c7nnc(-c8ccccc8O)cc7c6[C@@H]5C)nc4)CC3)CC2)C(C)C)on1 (single isomer, unassigned) [I-40] | 70 to 90 | > 100 | 70 to 90 | > 100 | 70 to 90 | 10 to 100 | D (D (<10 fold))
C#Cc1ccc(CNC(=O)[C@@H]2C[C@@H](O)CN2C(=O)[C@@H](NC(=O)CN2CCC(N3CC4(CC(N5CCN6c7cc(-c8ccccc8O)nnc7NC[C@H]6C5)C4)C3)CC2)C(C)(C)C)cc1 [I-252, (2S,4R)—N-(4-ethynylbenzyl)-4-hydroxy-1-((S)-2-(2-(4-(6-((S)-2-(2-hydroxyphenyl)-6a,7,9,10-tetrahydro-5H-pyrazino[1′,2′:4,5]pyrazino[2,3-c]pyridazin-8(6H)-yl)-2-azaspiro[3.3]heptan-2-yl)piperidin-1-yl)acetamido)-3,3-dimethylbutanoyl)pyrrolidine-2-carboxamide] | > 90 | 50 to 100 | > 90 | 1 to 10 | > 90 | < 1 | D (D (<10 fold))
Cc1ncsc1-c1ccc(CNC(=O)[C@@H]2C[C@@H](O)CN2C(=O)C(c2cc(N3CCC(CCN4CCC(c5cnc(N6CCc7[nH]c8nnc(-c9ccccc9O)cc8c7[C@H]6C)nc5)CC4)CC3)no2)C(C)C)cc1 (stereo partly shown) [I-7] | > 90 | 10 to 50 | > 90 | 10 to 100 | > 90 | 1 to 10 | C (C (10-100 fold))
C#Cc1ccc(CNC(=O)[C@@H]2C[C@@H](O)CN2C(=O)[C@@H](NC(=O)N2CC3(CC(N4CCC(N5CCC(N6CCc7[nH]c8nnc(-c9ccccc9O)cc8c7[C@H]6C)C5)CC4)C3)C2)C(C)(C)C)cc1 (mixture of isomers) [I-188] | > 90 | > 100 | < 50 | > 100 | 50 to 70 | 10 to 100 | C (C (10-100 fold))
C#Cc1ccc(CNC(=O)[C@@H]2C[C@@H](O)CN2C(=O)[C@@H](NC(=O)[C@H]2CC3(C2)C[C@H](N2CCC(N4CCC(N5CCN6c7cc(-c8ccccc8O)nnc7NC[C@H]6C5)CC4)CC2)C3)C(C)(C)C)cc1 (single isomer, unassigned) [I-113] | > 90 | 10 to 50 | 50 to 70 | > 100 | 70 to 90 | 1 to 10 | B (B (>100-500 fold))
C#Cc1ccc(CNC(=O)[C@@H]2C[C@@H](O)CN2C(=O)[C@@H](NC(=O)N2CC3(CC(N4CCC(c5cnc(N6CCc7[nH]c8nnc(-c9ccccc9O)cc8c7[C@H]6C)nc5)CC4)C3)C2)C(C)(C)CCN2CCN[C@H](C(=O)O)C2)cc1 [I-344] | < 50 | > 100 | < 50 | > 100 | < 50 | > 100 | C (C (10-100 fold))
C#Cc1ccc(CNC(=O)[C@@H]2C[C@@H](O)CN2C(=O)[C@@H](NC(=O)N2CCN(C[C@H]3CC[C@H](N4CCC(N5CCc6[nH]c7nnc(-c8ccccc8O)cc7c6[C@H]5C)CC4)CC3)CC2)C(C)(C)C)cc1 [I-194] | 70 to 90 | > 100 | < 50 | > 100 | < 50 | > 100 | C (C (10-100 fold))
C#Cc1ccc(CNC(=O)[C@@H]2C[C@@H](O)CN2C(=O)[C@@H](NC(=O)CCCCCCCN2CCC(N3CC4(CC(N5CCN6c7cc(-c8ccccc8O)nnc7NC[C@H]6C5)C4)C3)CC2)C(C)(C)C)cc1 [I-243] | > 90 | 50 to 100 | < 50 | > 100 | 70 to 90 | 1 to 10 | B (B (>100-500 fold))
C#Cc1ccc(CNC(=O)[C@@H]2C[C@@H](O)CN2C(=O)[C@@H](NC(=O)N2CCO[C@H](CN3CCC(N4CCC(N5CCN6c7cc(-c8ccccc8O)nnc7NC[C@H]6C5)CC4)CC3)C2)C(C)(C)C)cc1 [I-219] | 50 to 70 | > 100 | < 50 | > 100 | < 50 | > 100 | C (C (10-100 fold))
C#Cc1ccc(CNC(=O)[C@@H]2C[C@@H](O)CN2C(=O)[C@H](NC(=O)[C@H]2CCC3(CC2)C[C@H](N2CCN(c4cnc(N5CCN6c7cc(-c8ccccc8O)nnc7NC[C@H]6C5)nc4)CC2)C3)C(C)(C)CCO)c(Cl)c1 (single isomer, unassigned) [I-306] | < 50 | > 100 | < 50 | > 100 | < 50 | > 100 | D (D (<10 fold))
C#Cc1ccc([C@H](C)NC(=O)[C@@H]2C[C@@H](O)CN2C(=O)[C@@H](NC(=O)N2CC3(CC(N4CCC(c5cnc(N6CCc7[nH]c8nnc(-c9ccccc9O)cc8c7[C@H]6C)nc5)CC4)C3)C2)C(C)(C)C)c(O)c1 [I-282] | > 90 | < 10 | 70 to 90 | > 100 | 70 to 90 | 1 to 10 | C (C (10-100 fold))
C#Cc1ccc(CNC(=O)[C@@H]2C[C@@H](O)CN2C(=O)[C@@H](NC(=O)C2CCC3(CC2)CC(N2CCC(c4ccc(N5CCN6c7cc(-c8ccccc8O)nnc7NC[C@H]6C5)cc4)CC2)C3)C(C)(C)C)cc1 (stereo partly shown) [I-95] | < 50 | > 100 | < 50 | > 100 | < 50 | > 100 | C (C (10-100 fold))
C#Cc1ccc([C@H](C)NC(=O)[C@@H]2C[C@@H](O)CN2C(=O)[C@@H](NC(=O)[C@H]2CC3(C2)C[C@H](N2CCC(N4CCC(N5CCN6c7cc(-c8ccccc8O)nnc7NC[C@H]6C5)CC4)CC2)C3)C(C)(C)C)cc1 (single isomer, unassigned) [I-213] | > 90 | > 100 | < 50 | > 100 | 70 to 90 | 1 to 10 | B (B (>100-500 fold))
C#Cc1ccc(CNC(=O)[C@@H]2C[C@@H](O)CN2C(=O)[C@@H](NC(=O)N2CC3(CC(N4CCC(c5cnc(N6CCc7[nH]c8nnc(-c9ccccc9O)cc8c7[C@H]6C)nc5)CC4)C3)C2)C(C)(C)C)c(OCCCC(=O)O)c1 [I-145] | > 90 | 10 to 50 | > 90 | 10 to 100 | > 90 | < 1 | C (C (10-100 fold))
C#Cc1ccc(CNC(=O)[C@@H]2C[C@@H](O)CN2C(=O)[C@@H](NC(=O)C2CC3(C2)CC(N2CCC(N4CCC(N5CCN6c7cc(-c8ccccc8O)nnc7NC[C@H]6C5)CC4)CC2)C3)C(C)(C)C)cc1 (stereo partly shown) [I-137] | > 90 | 50 to 100 | < 50 | > 100 | 70 to 90 | 1 to 10 | A (A (>500 fold))
